molecular target: YFP-HA-βlac-DAT (Homo sapiens, UniProt Q01959); test: β-lactamase (βlac) surface expression assay; type: cell-based; details: HEK293, HEK cells expressing YFP-HA-βlac-DAT, overnight (16 h) incubation, up to 100 μM, normalized to vehicle; assumed effective EMax; read-out: EMax (%), WT DAT surface expression
Experimental: The βlac surface expression assay was performed by following the method outlined in [Lam et al. (2013)] and [Beerepoot et al. (2015], [2016)]. The assay substrate nitrocefin (BD biosciences) was dissolved in dimethyl sulfoxide (DMSO) at a concentration of 10 mM and frozen at −80°C. Immediately before use, it was thawed and diluted to a final concentration of 100 μM in phosphate buffered saline (PBS). Cells (1 × 10^5/well) were seeded into a poly-D-lysine-coated 48-well plate and incubated for 24 h, prior to drug treatment. Drugs were added to individual wells at varying concentrations and incubated for 16 h. Subsequently, the media was aspirated, and the cells were washed twice with PBS. After removal of the final PBS wash, 200 μL of the nitrocefin solution was added to each well and the absorbance was immediately read. The EPOCH microplate spectrophotometer (BioTek) was used to measure absorbance (486 nm) for each well every minute for 30 min. The rate of reaction (slope of the curve) was used as the readout for the assay ([Beerepoot et al., 2015]). To determine suitable concentration ranges for each drug, they were dissolved in PBS or DMSO at the highest concentration possible. From here, the solutions were serial diluted 1/10 to yield 8 different concentrations. βLAC cells were then treated with the varying drug concentrations and cell viability was recorded using light microscopy. For additional measure, nitrocefin was added and the absorbance was read. For certain cases, Trypan Blue was used to quantitatively differentiate increased cell death from reduced cell division. […] Five or six doses were generally used in subsequent dosing experiments, starting at the highest non-toxic concentration.
Data analysis was performed using GraphPad Prism (GraphPad Software, La Jolla, CA). Linear regression analysis was performed on βLAC time points to determine the slope, thus the rate of reaction, for comparison. Furthermore, the slope was also used to determine the degree of dopamine uptake in the dopamine uptake assays. Non-linear regression, fitting to the log(agonist) vs. response and log(inhibitor) vs. response model curve, was used to determine dose-response relationships of surface expression and uptake assays, respectively. One-way ANOVA with Dunnett’s post hoc-test was used for the β-lactamase assay and one-way ANOVA with Bonferroni correction was used for western blot analysis.
Among these were RTI-1, RTI-2, RTI-5, RTI-6, RTI-11, RTI-20, and PAL-1007. […] The EMax values of all the analyzed drugs are included in Figure 1.
The pharmacological chaperone ability of the 15 ibogaine and tryptamine analogs, shown in Figure 3, were measured using the βlac surface expression assay. HEK cells expressing YFP-HA-βlac-DAT were incubated overnight with these compounds at concentrations varying by log and half-log dilutions, starting at 100 μM final concentration. […] Furthermore, it was important to determine whether the β-carboline analogs could also elicit a chaperone effect because they are not classified as DAT ligands ([Cao et al., 2007]). […] Removing the nitrogen from the ring reduced efficacy as observed with frovatriptan (103 ± 1.4%). […] Evodiamine (54 ± 1.7%) had no chaperone ability and caused a substantial reduction in the surface expression of DAT. Dose-response curves were generated to assess the pharmacological chaperone potencies of select compounds (Figure 4).

Sequence of YFP-HA-βlac-DAT (Q01959 1-171 limits assumed): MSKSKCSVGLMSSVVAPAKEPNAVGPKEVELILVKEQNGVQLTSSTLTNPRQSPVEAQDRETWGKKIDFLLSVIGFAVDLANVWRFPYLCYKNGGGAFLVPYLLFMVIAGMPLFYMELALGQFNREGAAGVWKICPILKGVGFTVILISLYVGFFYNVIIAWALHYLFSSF
Sequence of YFP-HA-βlac-DAT (Q01959 237-620 limits assumed): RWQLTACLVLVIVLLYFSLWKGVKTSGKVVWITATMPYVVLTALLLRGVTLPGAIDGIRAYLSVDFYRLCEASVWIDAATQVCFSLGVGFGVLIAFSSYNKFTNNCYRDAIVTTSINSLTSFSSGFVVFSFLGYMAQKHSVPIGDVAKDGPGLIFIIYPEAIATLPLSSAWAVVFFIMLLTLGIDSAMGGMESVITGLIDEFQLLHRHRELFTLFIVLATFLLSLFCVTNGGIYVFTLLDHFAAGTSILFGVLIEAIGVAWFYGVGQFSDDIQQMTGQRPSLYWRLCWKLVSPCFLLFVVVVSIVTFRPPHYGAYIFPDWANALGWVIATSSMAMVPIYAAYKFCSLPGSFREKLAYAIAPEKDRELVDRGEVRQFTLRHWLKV

Going from `C[C@H](NC1CCC1)C(=O)c1cccc(Cl)c1` [PAL-1134] to `C[C@@H](NC1CCC1)C(=O)c1cccc(Cl)c1` [PAL-1132], the Emax rises from 98% to 110%.

`CC(NC1CC1)C(=O)c1ccc(F)c(Cl)c1` (centres unmarked) [PAL-819] and `CC(NC1CC1)C(=O)c1cccc(Cl)c1` (centres unmarked) [PAL-433] are within error of each other in Emax: 90 ± 5% for the first, 93 ± 10.4% for the second.

`CC(NC1CC1)C(=O)c1cccc(C(F)(F)F)c1` (centres unmarked) [PAL-1178] and `CC(NC1CC1)C(=O)c1cccc(Br)c1` (centres unmarked) [PAL-586] are within error of each other in Emax: 92 ± 1.2% for the first, 93 ± 5.8% for the second.

Compared with `CCC(NC(C)(C)C)C(=O)c1cccc(Cl)c1` (centres unmarked) [RTI-11], `CC(C(=O)c1cccc(Cl)c1)N(C)C(C)(C)C` (centres unmarked) [RTI-9] is lower in Emax: 131 ± 3.7% for the first, 87 ± 14.6% for the second.

First: CC(NC(C)(C)C)C(=O)c1ccc(F)c(F)c1 (centres unmarked) [RTI-13]
Second: Cc1ccc(C(=O)C(C)NC(C)(C)C)cc1Cl (centres unmarked) [RTI-20]
The Emax of the first is lower: 99 ± 4.3% for the first, 147 ± 8% for the second.

Compared with `CC(NC(C)(C)C)C(=O)c1ccccc1` (centres unmarked) [PAL-1463], `Cc1cccc(C(=O)C(C)NC(C)(C)C)c1` (centres unmarked) [RTI-6] is higher in Emax: 117% for the first, 134 ± 9.6% for the second.

`CNC(C)C(=O)c1cccc(C)c1` (centres unmarked) [PAL-1101] and `Cc1cccc(C(=O)C(C)NC2CCC2)c1` (centres unmarked) [PAL-1411] are within error of each other in Emax: 105 ± 3.6% for the first, 110 ± 4.5% for the second.

`COc1cccc(C(=O)C(C)NC2CC2)c1` (centres unmarked) [PAL-789] and `CC(NC1CCC1)C(=O)c1cccc(F)c1` (centres unmarked) [PAL-1008] are within error of each other in Emax: 93 ± 10.6% for the first, 96 ± 7.3% for the second.

First: Cc1ccc(C(=O)C(C)N)cc1 (centres unmarked) [PAL-1270]
Second: Cc1ccc(C(=O)C(C)N(C)Cc2ccccc2)cc1 (centres unmarked) [PAL-945]
The Emax of the first is higher: 104 ± 2.3% for the first, 85% for the second.

First: COc1cccc(C(=O)C(C)NC(C)(C)C)c1 (centres unmarked) [PAL-1465]
Second: CC(NC(C)(C)C)C(=O)c1cccc(F)c1 (centres unmarked) [PAL-1466]
The Emax of the first is lower: 91% for the first, 100% for the second.

Compared with `CC(C)N(CCc1c[nH]c2cccc(O)c12)C(C)C` [PAL-1416], `NCCc1c[nH]c2ccccc12` [Tryptamine, tryptamine, reference compound] is lower in Emax: 127 ± 6.6% for the first, 104 ± 1.6% for the second.

First: CC1NC(C)(C)COC1(O)c1cc(F)cc(F)c1 (centres unmarked) [RTI-18]
Second: CC1NC(C)(C)COC1(O)c1cc(Cl)cc(Cl)c1 (centres unmarked) [RTI-21]
The Emax of the first is higher: 122% for the first, 103 ± 3.7% for the second.

`CC(C(=O)c1cccc(Cl)c1)N(C)C` (centres unmarked) [RTI-8] and `CC(C)NC(C)C(=O)c1cccc(Cl)c1` (centres unmarked) [PAL-1467] are within error of each other in Emax: 107 ± 6.3% for the first, 100 ± 4% for the second.

Compared with `CC(NC(C)(C)C)C(=O)c1ccc(Br)cc1` (centres unmarked) [RTI-2], `CC(NC(C)(C)C)C(=O)c1ccc(Cl)cc1` (centres unmarked) [RTI-3] is lower in Emax: 127 ± 2.6% for the first, 113 ± 6.2% for the second.

`COc1ccc2c3c([nH]c2c1)CCN(C)CC3` [Tabernanthalog, tabernanthalog] and `COc1ccc2[nH]c3c(c2c1)CCN(C)CC3` [Ibogainealog, ibogainealog] are within error of each other in Emax: 179 ± 9.1% for the first, 169 ± 13.7% for the second.

`CN1CCc2[nH]c3ccc(O)cc3c2CC1` [Noribogainalog, noribogainalog] and `CN1CCc2[nH]c3ccccc3c2CC1` [Ibogaminalog] are within error of each other in Emax: 185 ± 17.9% for the first, 175 ± 12.9% for the second.

Going from `CC(NC1CCC1)C(=O)c1cccc(Cl)c1` (centres unmarked) [PAL-1007] to `CC(NC1CCC1)C(=O)c1ccccc1` (centres unmarked) [PAL-933], the Emax falls from 136 ± 9.1% to 114 ± 2.3%.

`CCCN(CCC)CCc1c[nH]c2ccc(OC)cc12` [PAL-709] and `CC(NC1CCC1)C(=O)c1c[nH]c2ccccc12` (centres unmarked) [PAL-1407] are within error of each other in Emax: 97 ± 7.2% for the first, 98 ± 3.9% for the second.

Going from `CC(C(=O)c1cccc(Cl)c1)N1CCCCC1` (centres unmarked) [RTI-7] to `CC(NC(C)(C)C)C(=O)c1cccc(Br)c1` (centres unmarked) [RTI-1], the Emax rises from 102 ± 3.9% to 161 ± 2.7%.

Going from `CC(NC(C)(C)C)C(=O)c1cc(Cl)cc(Cl)c1` (centres unmarked) [RTI-17] to `CC(NC(C)(C)C)C(=O)c1ccc(Cl)c(Cl)c1` (centres unmarked) [RTI-4], the Emax rises from 78 ± 2.8% to 110 ± 5.7%.

Compared with `CC(Cc1cccc(Cl)c1)NC(C)(C)C` (centres unmarked) [PAL-1468], `CC(NC1CCC1)C(=O)c1ccc2c(c1)OCO2` (centres unmarked) [PAL-1414] is lower in Emax: 117% for the first, 102% for the second.

same assay, conditions: HEK293, HEK cells expressing YFP-HA-βlac-DAT, overnight incubation, normalized to vehicle; read-out: EMax (%), WT DAT surface expression

Work on `CN[C@@H](C)[C@H](O)c1ccccc1` [Ephedrine, ephedrine, reference compound] yielded an Emax of 128 ± 4.7%.

same assay, conditions: HEK293, read-out: EMax (%), WT DAT surface expression, HEK cells expressing YFP-HA-βlac-DAT, overnight (16 h) incubation, up to 100 μM, normalized to vehicle; assumed effective EMax

Compared with `CN1CCc2[nH]c3ccc(F)cc3c2CC1` [Fluorogainalog, fluorogainalog], `COc1ccc2[nH]c3c(c2c1)CCNC3` [Pinoline, pinoline, reference compound] is lower in Emax: 219 ± 29% for the first, 141 ± 4.4% for the second.

Compared with `CC[C@H]1C[C@@H]2C[C@H]3c4[nH]c5ccccc5c4CCN(C2)[C@@H]13` [Ibogamine, reference compound], `COc1ccc2c3c([nH]c2c1)C(C)NCC3` (centres unmarked) [Tetrahydroharmine, tetrahydroharmine] is lower in Emax: 202 ± 7.1% for the first, 137 ± 6.8% for the second.

First: CC(CNC(C)(C)C)C(=O)c1cccc(Cl)c1 (centres unmarked) [RTI-10]
Second: CC1NC(C)(C)COC1(O)c1cccc(Cl)c1 (centres unmarked) [6-Hydroxybupropion, 6-hydroxybupropion, reference compound]
The Emax of the first is lower: 36 ± 1.4% for the first, 148 ± 5.4% for the second.

Work on `CN[C@@H]1CCc2[nH]c3ccc(C(N)=O)cc3c2C1` [Frovatriptan, frovatriptan, reference compound] yielded an Emax of 103 ± 1.4%.

same assay, conditions: HEK cells expressing YFP-HA-βlac-DAT, overnight (16 h) incubation, up to 100 μM, normalized to vehicle; assumed effective EMax

In the case of evodiamine [reference compound], the “EMax (%), WT DAT surface expression” value is reported as 54 ± 1.7%.

molecular target: T1, K590A DAT (Homo sapiens, UniProt Q01959, K590A); test: Western blot of mature K590A DAT protein levels; type: cell-based; details: overnight treatment
T1 construct: expressed in transfected cells; host or cells: HEK293
T1 sequence (Q01959 whole entry K590A): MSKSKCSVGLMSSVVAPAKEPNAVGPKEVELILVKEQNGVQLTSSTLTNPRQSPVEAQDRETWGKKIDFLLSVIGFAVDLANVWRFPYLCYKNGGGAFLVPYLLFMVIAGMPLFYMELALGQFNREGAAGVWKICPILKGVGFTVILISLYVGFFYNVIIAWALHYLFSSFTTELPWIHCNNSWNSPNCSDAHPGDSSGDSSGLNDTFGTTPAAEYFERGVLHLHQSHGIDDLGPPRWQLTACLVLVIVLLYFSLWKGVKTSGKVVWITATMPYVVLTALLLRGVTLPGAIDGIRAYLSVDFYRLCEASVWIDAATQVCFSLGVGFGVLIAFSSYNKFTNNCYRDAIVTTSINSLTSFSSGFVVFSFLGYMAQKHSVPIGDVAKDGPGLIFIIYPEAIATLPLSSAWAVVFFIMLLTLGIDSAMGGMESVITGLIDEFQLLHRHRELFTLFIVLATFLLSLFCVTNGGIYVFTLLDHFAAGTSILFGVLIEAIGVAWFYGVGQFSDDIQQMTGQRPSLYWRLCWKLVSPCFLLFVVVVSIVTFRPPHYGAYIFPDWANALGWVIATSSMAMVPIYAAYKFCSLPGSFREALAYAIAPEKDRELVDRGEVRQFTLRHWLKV
Experimental: (§1) Cells (1 × 10^6 cells/well) were seeded onto a 6-well plate and incubated for 24 h. Cells were then treated with drugs and incubated for 16 h. After the incubation period, cells were lysed in RIPA buffer supplemented with protease inhibitors (working concentrations: pepstatin A, 5 μg/mL; leupeptin, 10 μg/mL; aprotinin, 1.5 μg/mL; benzamidine, 0.1 μg/mL; PMSF, 0.1 mM) on ice. At 4°C, cell lysates were gently shaken for 15 min followed by centrifugation at 15,000 rpm for 15 min to pellet debris. The Pierce BCA protein assay kit (Thermo Fisher Scientific, Canada) was used to determine the protein concentration of the supernatant. To reach a concentration of 40 μg of protein per 20 μL, samples were diluted in fresh RIPA buffer with 12.5% Laemmli sample buffer and 2.5% β-Mercaptoethanol prior to being heated to 55°C. The protein was then loaded on a 7.5 or 10% SDS-PAGE gel and run at 100 V for approximately an hour or until the dye front reached the bottom of the gel. Next, protein was transferred to a PVDF membrane at 22 V for 16 h or 100 V for 1 h. Blots were blocked with LI-COR blocking buffer for 1 h and incubated for 1 h at room temperature with rabbit anti-GFP (1:1,000 dilution; Life Technologies, cat#A11122). After washing three times with TBST, blots were incubated with goat anti-rabbit IRDye-680RD secondary antibody (1:15,000; LI-COR, cat#926-68071). As a loading control, blots were incubated with mouse anti-GAPDH (1:5,000, Sigma-Aldrich, Canada, cat#G8795) prior to secondary antibody goat anti-mouse IRDye-800GR (1:5,000 dilution, Rockland, Limerick, PA, cat#610-132-007). All antibodies were diluted in LI-COR blocking buffer. Additionally, REVERT total protein staining (LI-COR, Lincoln, NE) was used as a loading control. […] Mature, fully glycosylated DAT (mDAT = 110 kDa) and immature, ER-resident DAT (iDAT = 75 kDa) were visualized using the Odyssey Imaging System (LI-COR, Lincoln, NE) and Image Studio Version 5.2 software (Supplementary Figure 1).
(§2) We next assessed whether drugs that increase DAT surface expression also increase total protein levels of DAT. Cells expressing YFP-HA-DAT were incubated with select test compounds and DAT protein levels were examined by western blot. The effects of the compounds were assessed on WT DAT and K590A DAT. The K590A mutant is a well-characterized ER-retained, trafficking-deficient DAT mutant ([Miranda et al., 2004]) that can be rescued by pharmacological chaperones ([Beerepoot et al., 2016]).
(§3) FIGURE 5 Effect of noribogaine, tetrahydroharmine, PAL-594, bicifadine, and RTI-20 on WT and K590A DAT expression. […] (B) Quantification of WT mDAT protein levels. […] (D) Quantification of K590A mDAT protein levels. […]

In the case of `COc1ccc2c3c([nH]c2c1)C(C)NCC3` (centres unmarked) [Tetrahydroharmine, tetrahydroharmine], the “K590A DAT (mDAT) protein levels” value is reported as “statistically significant effect”.

molecular target: T2, WT DAT (YFP-HA-DAT) (Homo sapiens, UniProt Q01959); test: Western blot of mature WT DAT protein levels; type: cell-based; details: overnight 100 μM
T2 construct: expressed in transfected cells; host or cells: HEK293
T2 sequence (Q01959 whole entry): as the sequence (Q01959 whole entry K590A) above, with A590K counted along it
Experimental: as §1, §2, §3

`Cc1ccc(C(=O)C(C)NC(C)(C)C)cc1Cl` (centres unmarked) [RTI-20] was tested, and the “mature WT DAT (mDAT) protein levels” value was “significantly increase”.
